Experimental data reported in ChEMBL document CHEMBL4390646, “A fragment-based approach towards the discovery of N-substituted tropinones as inhibitors of Mycobacterium tuberculosis transcriptional regulator EthR2” (Eur J Med Chem, 2019).
The source made the active and inactive calls. The calls are words filed in the database; no cut-off is given here.

Legend:
[1] = tested on: Mycobacterium tuberculosis; assay: Binding affinity to recombinant Mycobacterium tuberculosis EthR2 assessed as change in melting temperature at 20 uM by SYPRO Orange dye based fluorescence thermal shift assay
[2] = tested on: Mycobacterium tuberculosis; assay: Inhibition of EthR2 in Mycobacterium tuberculosis assessed as potentiation of ETH bioactivation up to 30 uM using 0.1 ug/ml ETH
[3] = Inhibition of recombinant Mycobacterium tuberculosis EthR2 expressed in golden hamster BHK21 cells assessed as reduction in EthR2 and DNA interaction measured after 48 hrs by p-nitrophenyl phosphate based SEAP reporter gene assay; type: cell-based
[4] = tested on: Mycobacterium tuberculosis; assay: Binding affinity to recombinant Mycobacterium tuberculosis EthR2 assessed as change in melting temperature at 1 mM by Nano Orange dye based fluorescence thermal shift assay
[5] = molecular target: HTH-type transcriptional regulator EthR (Mycobacterium tuberculosis) (UniProt P9WMC1); assay: Binding affinity to Mycobacterium tuberculosis EthR at 30 uM by mammalian reporter assay
Sequence of HTH-type transcriptional regulator EthR (Mycobacterium tuberculosis) (P9WMC1 whole entry): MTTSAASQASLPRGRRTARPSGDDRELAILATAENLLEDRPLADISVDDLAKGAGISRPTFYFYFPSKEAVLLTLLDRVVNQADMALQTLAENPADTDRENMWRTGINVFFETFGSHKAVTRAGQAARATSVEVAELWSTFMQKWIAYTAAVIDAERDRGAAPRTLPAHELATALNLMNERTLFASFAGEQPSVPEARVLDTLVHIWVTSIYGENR

O=C1CC2CCC(C1)N2CCc1ccc(F)cc1
ΔTm [1]: 0.4 °C
Activity [2]: inactive
pIC50 [3]: 5.6

O=C1CC2CCC(C1)N2CCc1cccc(C(F)(F)F)c1
ΔTm [1]: -0.1 °C

CCCNC(=O)Nc1cccc(C)n1
ΔTm [4]: 2.2 °C
pIC50 [3]: < 4

O=C1CC2CCC(C1)N2CCc1ccccc1C(F)(F)F
ΔTm [1]: 0.3 °C

O=C1CC2CCC(C1)N2CCc1ccc([N+](=O)[O-])cc1
ΔTm [1]: -0.2 °C

Cc1ccc(CCN2C3CCC2CC(=O)C3)cc1
ΔTm [1]: 0.6 °C
Activity [2]: inactive
pIC50 [3]: 5.8

FC(F)=C1CC2CCC(C1)N2CCc1ccc(Cl)cc1
ΔTm [1]: 0.6 °C
pIC50 [3]: < 4.8

O=C1C2CCC1CN(CCc1ccc(Cl)cc1)C2
ΔTm [1]: 0.1 °C

N=C(N)Nc1nc2ccccc2s1
ΔTm [4]: 2.8 °C
pIC50 [3]: < 4

CC(Cc1ccc(Cl)cc1)N1C2CCC1CC(=O)C2 (stereo not drawn)
ΔTm [1]: 0.1 °C

O=C1CC2CCC(C1)N2CCc1ccc(Cl)c(Cl)c1
ΔTm [1]: 1 °C
Activity [2]: inactive
pIC50 [3]: 6

O=C1CC2CCC(C1)N2Cc1ccc(Cl)cc1
ΔTm [1]: 0 °C

O=C1CC2CCCC(C1)N2CCc1ccc(Cl)cc1
ΔTm [1]: 0.6 °C
Activity [2]: inactive
pIC50 [3]: 5.8

O=C1CC2CCC(C1)N2CCc1ccc(Cl)cc1
ΔTm [4]: 3.4 °C
ΔTm [1]: 0.6 °C
Activity [2]: inactive
pIC50 [3]: 6
Activity [5]: inactive

COc1ccc(CCN2C3CCC2CC(=O)C3)cc1
ΔTm [1]: 0.3 °C

Clc1ccc(CCN2C3CCC2CC2(C3)OCCO2)cc1
ΔTm [1]: 0.1 °C
pIC50 [3]: < 4.8

O=C1CC2CCC(C1)N2C(=O)Cc1ccc(Cl)cc1
ΔTm [1]: -0.1 °C

Clc1cccc(CN2CCNCC2)c1
ΔTm [4]: 3.1 °C
pIC50 [3]: 5.5

O=C1CC2CCC(C1)N2CCc1ccncc1
ΔTm [1]: 0 °C
Activity [2]: inactive

O=C1C2CCCC1CN(CCc1ccc(Cl)cc1)C2
ΔTm [1]: -0.1 °C

O=C1CC2CCC(C1)N2CCc1ccc(C(F)(F)F)cc1
ΔTm [1]: 1.8 °C
Activity [2]: inactive
pIC50 [3]: 6.7

O=C1CC2CCC(C1)N2CCc1ccccc1
ΔTm [1]: 0.1 °C
Activity [2]: inactive
pIC50 [3]: 5

COC1(OC)CC2CCC(C1)N2CCc1ccc(Cl)cc1
ΔTm [1]: 0.2 °C
pIC50 [3]: < 4.8

O=C1CC2CCC(C1)N2CCc1ccc(Cl)cc1Cl
ΔTm [1]: 0.2 °C
pIC50 [3]: 5.7

O=C1CC2CCC(C1)N2CCc1ccc(Br)cc1
ΔTm [1]: 1 °C
Activity [2]: inactive
pIC50 [3]: 6.1

CC(C)Sc1nc2[nH]cnc(N)c-2n1
ΔTm [4]: 2.5 °C
pIC50 [3]: 5.1
